# Data reported in PubChem BioAssay AID1159585 (Gregory J. Crowther, 2016).
# Molecular target: Calcium-dependent protein kinase 1 (Plasmodium falciparum (isolate 3D7)) (UniProt P62344)
# Assay: PfCDPK1 kinase inhibitors, biochemical, TCAMS library (AID 1159585);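 further: inhibitors leave more ATP so luminescence rises with inhibition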
# Conditions: recombinant PfCDPK1, Kinase-Glo ATP depletion luminescence
# Chain of Calcium-dependent protein kinase 1 (Plasmodium falciparum (isolate 3D7)) (P62344 whole entry, looked up): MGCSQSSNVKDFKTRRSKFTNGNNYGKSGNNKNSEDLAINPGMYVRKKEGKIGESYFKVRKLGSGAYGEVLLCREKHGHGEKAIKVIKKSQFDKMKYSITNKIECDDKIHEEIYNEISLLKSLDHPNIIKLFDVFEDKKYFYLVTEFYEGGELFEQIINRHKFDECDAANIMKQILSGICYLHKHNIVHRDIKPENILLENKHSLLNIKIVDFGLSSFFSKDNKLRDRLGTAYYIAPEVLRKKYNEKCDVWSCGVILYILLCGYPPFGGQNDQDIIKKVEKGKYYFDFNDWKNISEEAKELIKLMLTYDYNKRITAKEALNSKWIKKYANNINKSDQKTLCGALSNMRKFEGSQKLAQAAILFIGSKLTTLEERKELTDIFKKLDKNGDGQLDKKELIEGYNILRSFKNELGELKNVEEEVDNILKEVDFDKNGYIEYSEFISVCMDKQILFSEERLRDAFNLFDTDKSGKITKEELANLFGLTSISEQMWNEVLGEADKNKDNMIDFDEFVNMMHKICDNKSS
row,SMILES,IC50 [nM]
1,CN(C)CCN(C)Cc1ccc(-c2ccc3c(Nc4ccc(Oc5ccccc5)cc4)ccnc3c2)o1,718
2,c1ccc(Oc2ccc(Nc3ccnc(Nc4ccc5cn[nH]c5c4)n3)cc2)cc1,765
3,CC(C)(CNCc1ccc(F)c(F)c1)c1nc(-c2ccc(Cl)c(O)c2)c(-c2ccnc(N)n2)[nH]1,469
4,NCCNS(=O)(=O)c1ccc(-c2ccnc3[nH]c(-c4ccncc4)cc23)cc1,422
5,CC(C)(CNC(=O)C1CCN(Cc2ccoc2)CC1)c1nc(-c2ccc(Cl)c(O)c2)c(-c2ccncc2)[nH]1,425
6,COc1ccc(C(=O)NCC(C)(C)c2nc(-c3ccc(Cl)c(O)c3)c(-c3ccncc3)[nH]2)cc1OCCN(C(C)C)C(C)C,387
7,COc1ccc(-c2cnc3[nH]cc(-c4ccncc4)c3c2)cc1OC,390
8,CC(C)(CN)c1nc(-c2ccc(Cl)c(O)c2)c(-c2ccncc2)[nH]1,10
9,COc1ccc2nc(-c3cc(-c4ccc(NC(C)=O)cc4)cnc3N)[nH]c2c1,501
10,Cc1ccc(Nc2nccc(N(C)c3ccc4c(c3)nc(NC(=O)Cc3ccc(Cl)c(Cl)c3)n4C)n2)cc1S(N)(=O)=O,345
11,CC(C)(CNCc1ccc(F)c(F)c1)c1nc(-c2ccc(Cl)c(O)c2)c(-c2ccncc2)[nH]1,451
12,COc1ccc(-c2cnc3ccc(NCCCO)nn23)cc1OC,361
13,Oc1cc(-c2nc(-c3ccccc3)[nH]c2-c2ccncc2)ccc1Cl,975
14,CS(=O)(=O)Nc1cccc(-c2cnc3[nH]cc(-c4ccc(CN)cc4)c3c2)c1,552
15,NCCCNc1nc(Nc2cccc(C(N)=O)c2)c2c(=O)[nH]ccc2n1,750
16,CC(C)(CNCCOc1ccc(Cl)cc1)c1nc(-c2ccc(Cl)c(O)c2)c(-c2ccnc(N)n2)[nH]1,755
17,CC(C)(CNCc1ccc(OC(F)(F)F)cc1)c1nc(-c2ccc(Cl)c(O)c2)c(-c2ccncc2)[nH]1,438

# Other lines, results leading:
row,IC50 [nM],SMILES
1,14,NCC1(c2nc(-c3ccc(Cl)c(O)c3)c(-c3ccncc3)[nH]2)CCCCC1
2,20,NS(=O)(=O)c1cccc(Nc2nccc(-c3c(-c4cccc(NC(=O)c5c(F)cccc5F)c4)nn4ccccc34)n2)c1
3,164,CC(C)(CNC(=O)[C@H]1CCCCN1)c1nc(-c2ccc(Cl)c(O)c2)c(-c2ccncc2)[nH]1
4,47,NCCCOc1cnc(-c2ccccc2)c2nc(-c3nonc3N)n(CCc3ccccc3)c12
5,11,CS(=O)(=O)Cc1ccc(Nc2nccc(-c3c(-c4cccc(NC(=O)c5c(F)cccc5F)c4)nn4ncccc34)n2)cc1
6,46,Cn1cc(-c2ccnc3[nH]c(-c4cccc(CNC5CCC(O)CC5)c4)cc23)cn1 (stereo unspecified)
7,271,CN(C(=O)c1cc2c(-c3cncnc3)cccc2[nH]1)c1ccccc1
8,235,O=c1[nH]ccc2nc(N[C@@H]3CCNC3)nc(Nc3ccc4c(c3)S(=O)(=O)CC4)c12
9,125,Cc1ccc(O)cc1Nc1ccnc2cc(-c3cccc(CNCCS(C)(=O)=O)c3)ccc12
10,190,CC(C)(CNCc1ccccc1)c1nc(-c2ccc(Cl)c(O)c2)c(-c2ccncc2)[nH]1
11,23,O=C(Nc1cccc(-c2nn3ncccc3c2-c2ccnc(Nc3cccc(-c4cnco4)c3)n2)c1)c1c(F)cccc1F
12,186,COc1ccc(CNCC(C)(C)c2nc(-c3ccc(Cl)c(O)c3)c(-c3ccncc3)[nH]2)cc1
13,84,CCn1c(-c2nonc2N)nc2c(-c3cccc(NC(=O)NC45CC6CC(CC(C6)C4)C5)c3)ncc(OCCCN)c21
14,94,CCn1c(-c2nonc2N)nc2c(-c3ccccc3)ncc(OCCCCNCCc3ncc[nH]3)c21
15,21,CC(c1cccc(Nc2nccc(-c3c(-c4cccc(NC(=O)c5c(F)cccc5F)c4)nn4ccccc34)n2)c1)S(C)(=O)=O (stereo unspecified)
16,110,O=S1(=O)NCc2ccc(Nc3nccc(Nc4ccc5c(cnn5Cc5ccccc5)c4)n3)cc21
17,243,O=C(NCCCN1CCCCC1)c1cccc(Nc2nccc(Nc3ccc(Oc4ccccc4)cc3)n2)c1
18,150,Nc1ncc(-c2cn[nH]c2)cc1-c1nc2ccc(F)cc2[nH]1
19,85,CCn1c(-c2nonc2N)nc2c(-c3cccc(NC(=O)Nc4ccc5c(c4)CCC5)c3)ncc(OCCCN)c21
